Measured values as given in patent US7763596B2, “Selective glucocorticoid receptor agonists” (The University of Manchester, priority 2000, dated 2010).
“Also recorded” adds a separate entry of the source.

Assays:
Format in all cases: cell-based
endogenous GR = molecular target: T1, endogenous GR (Homo sapiens, UniProt P04150); assay: Transrepression assay using endogenous GR in the A549 lung epithelial cell line (TNF, NRE luciferase); conditions: compound G at 1, 10, 100 and 500 nM
T1 construct: This cell line contains functional endogenous GR; endogenous in cells; host or cells: A549
T1 sequence (P04150 1-777): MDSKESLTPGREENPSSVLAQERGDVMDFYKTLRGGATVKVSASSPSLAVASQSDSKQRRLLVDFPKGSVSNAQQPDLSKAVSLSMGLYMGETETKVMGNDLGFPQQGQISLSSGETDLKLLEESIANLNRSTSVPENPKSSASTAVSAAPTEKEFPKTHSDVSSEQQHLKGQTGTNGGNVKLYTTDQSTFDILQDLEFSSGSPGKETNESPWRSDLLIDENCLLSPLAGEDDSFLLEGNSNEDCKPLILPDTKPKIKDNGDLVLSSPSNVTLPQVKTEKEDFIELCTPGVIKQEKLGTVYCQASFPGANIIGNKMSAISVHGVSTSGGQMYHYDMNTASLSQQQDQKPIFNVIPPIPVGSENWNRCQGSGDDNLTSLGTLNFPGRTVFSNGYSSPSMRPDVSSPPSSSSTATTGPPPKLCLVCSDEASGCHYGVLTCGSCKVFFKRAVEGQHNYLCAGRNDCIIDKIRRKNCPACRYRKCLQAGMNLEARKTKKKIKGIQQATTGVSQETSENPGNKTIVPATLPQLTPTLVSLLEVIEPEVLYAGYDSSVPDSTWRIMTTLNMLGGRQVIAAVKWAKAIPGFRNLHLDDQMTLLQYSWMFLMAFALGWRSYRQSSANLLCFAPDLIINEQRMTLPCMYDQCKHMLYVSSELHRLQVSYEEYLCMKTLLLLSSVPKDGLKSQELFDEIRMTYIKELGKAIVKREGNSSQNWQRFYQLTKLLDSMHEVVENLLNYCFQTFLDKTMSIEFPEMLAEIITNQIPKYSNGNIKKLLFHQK
Text: The A549 cell line (ECACC:86012804) is derived from the human lung epithelial cells from a carcinoma. This cell line contains functional endogenous GR and is stimulated by Tumour Necrosis Factor (TNF) to produce IL-8.
In this assay TNF was used to stimulate NFkB activity in a cell line that expressed endogenous GR. The ability of NFkB to activate an NRE “driving” a luciferase reporter gene could then be repressed by GR in a ligand dependent manner and, therefore, used to measure transrepression.
COS7 cells were transfected with 3 μg NRE-Luc per 10 cm tissue culture dish. The cells were plated out in to 24 well plates after transfection and left for 18 hours to recover before the steroids of FIGS. 1 and 2 were added. Next TNF was added to the samples after 3 hours incubation with the steroids and after another 15 hours the cells were lysed and a luciferase assay was performed.

glucocorticoid receptor [1] = molecular target: T2, glucocorticoid receptor (Homo sapiens, UniProt P04150); assay: Transrepression assay using artificially expressed glucocorticoid receptor and P65 in the COS 7 cell line (NRE luciferase); set-up: expressed in transfected cells; host or cells: COS 7 (African green monkey kidney, deficient in endogenous GR); conditions: 1, 10 and 100 nM
T2 sequence (P04150 1-777): T1 sequence (P04150 1-777)
Protocol: (§1) All transfections were performed using lipofectamine plus (Gibco BRL), according to the manufacturers' instructions, as previously described^1. Briefly, all cells were seeded at 5×10^5 per 10 cm tissue culture plate 18 hours before transfection, the next day the relevant plasmids were mixed with serum free medium and “Plus” reagent (Gibco BRL) and incubated for 15 mins, lipofectamine reagent was added and the mix was incubated for a further 15 mins, this mix was added to the cells on serum free medium in the 10 cm tissue culture plates and left for 3 hours, the cells were then trypsinised and divided into 24 well plates, the cells were left to recover overnight and were treated with steroid for 16 hours before harvest. All experiments were performed from one transfection in triplicate and on separate occasions with similar results.
(§2) The firefly luciferase gene catalyses the production of light from the substrate luciferin. When plasmid constructs containing this gene are transfected into cell lines the activity of the gene can be assessed by the intensity of the luminesence. The luciferase assay yields luminescence through an ATP-dependent oxidation of luciferin the amount of light produced can be measured by a luminometer and is a measure of gene activity (Davis, 1996). Light intensity was measured in a Luminometer (LB 9501, Berthold). The light intensity should be proportional to luciferase concentration in the range of 10^−16M (10 μg/L) to 10^−8M (1 mg/L). To measure the luminescence of the treated cells 150 μl of 1× reporter lysis buffer (RLB: 25 mM Tris phosphate pH7.8, 10 mM MgCl2, 15% Glycerol, 1% Triton, 1 mM EDTA) was added to the 24 well plates to lyse the cells and incubated at room temperature for 30 mins whilst being shaken. Then 100 μl of the room temperature cell extract were mixed with 100 μl of room temperature Luciferase Assay Reagent (LAR: 1 mM ATP, 0.3 mM D-Luciferin, 66% RLB). This reaction was mixed in a luminometer (LB 9501, Berthold) and the light produced was measured for a period of 5 seconds.
To perform this assay the GR and p65 were artificially expressed in a cell line lacking GR and deficient in endogenous P65. The ability of P65 to activate an NFkB response element (NRE) “driving” a luciferase reporter gene could then be repressed by GR in a ligand dependent manner and, therefore, used to measure transrepression.
COS7 cells were transfected with 1 μg pcDNA3-GR and 3 μg NRE-Luc and 200 ng p65 per 10 cm tissue culture dish. The cells were plated out in to 24 well plates after transfection and left for 18 hours to recover before the steroids of FIGS. 1 and 2A were added. After another 18 hour incubation the cells were lysed and a luciferase assay was performed.

glucocorticoid receptor [2] = molecular target: T2, glucocorticoid receptor; assay: Transactivation assay using artificially expressed glucocorticoid receptor in the COS 7 monkey kidney cell line (GRE luciferase); set-up: expressed in transfected cells; host or cells: COS 7 (African green monkey kidney, deficient in endogenous GR); conditions: for ability to transactivate (luminescence) compared to dexamethasone: 1, 10 and 100 nM, FIGS. 3 and 4; for transactivation potential (luminescence) compared to dexamethasone, repeat experiment: 1, 10, 10 and 500 nM, FIG. 5
Protocol: as §1, §2
In this assay the GR was artificially expressed in a cell line lacking endogenous GR and a glucocorticoid response element (GRE) “driving” a luciferase reporter gene was used to measure ligand dependent activation.
COS7 cells were transfected with 1 μg pcDNA3-GR and 3 μg AH3-Luc per 10 cm tissue culture dish. The cells were plated out in to 24 well plates after transfection and the steroids were added immediately. After 18 hour incubation the cells were lysed and a luciferase assay was performed.

Structure (SMILES)	repression of TNF activation of A549 cells (NRE reporter gene) (endogenous GR)	repression of P65 stimulation of an NFkB response element compared with dexamethasone (glucocorticoid receptor [1])	ability to transactivate (luminescence) compared to dexamethasone (glucocorticoid receptor [2])	transactivation potential (luminescence) compared to dexamethasone, repeat experiment (glucocorticoid receptor [2])
CC1CC2C3CCC4=CC(=O)C=CC4(C)C3(F)C(O)CC2(C)C12OC(C)(C)OCC2=O (stereo not shown) [Compound A]	exhibited transrepression	less potent than dexamethasone but produced the same maximal response at 100 nM		
CC1CC2C3CCC4=CC(=O)C=CC4(C)C3(F)C(O)CC2(C)C1(O)C(=O)COC(=O)c1ccc(F)cc1 (stereo not shown) [Compound D]	exhibited transrepression	as potent as dexamethasone	more active in causing transactivation than dexamethasone	
CCCNC(=O)C1(O)C(C)CC2C3CCC4=CC(=O)C=CC4(C)C3(F)C(O)CC21C (stereo not shown) [Compound G]	repressed at least as well as dexamethasone and also had a “left shifted” response with greater maximal repression	“left shifted” response and greater maximal repression	much less potent and had a lower maximal effect when compared to dexamethasone	“right shifted response” and a reduced maximum compared to dexamethasone; also recorded: lowest overall maximal response
Cc1ccc(NC(=O)C2(O)C(C)CC3C4CCC5=CC(=O)C=CC5(C)C4(F)C(O)CC32C)cc1 (stereo not shown) [Compound O]		failed completely to repress P65 function	failed to generate a response at any concentration	
CCCCCCNC(=O)OCC(=O)C1(O)C(C)CC2C3CCC4=CC(=O)C=CC4(C)C3(F)C(O)CC21C (stereo not shown) [Compound T]		“left shifted” response and greater maximal repression		“right shifted response” and a reduced maximum compared to dexamethasone
CC1CC2C3CCC4=CC(=O)C=CC4(C)C3(F)C(O)CC2(C)C1(O)C(=O)NCCCO (stereo not shown) [L]		failed completely to repress P65 function	failed to generate a response at any concentration	
CC1CC2C3CCC4=CC(=O)C=CC4(C)C3(F)C(O)CC2(C)C1(O)C(=O)NCCC(=O)O (stereo not shown) [Q]		no effect at 1 and 10 nM with only a negligible repression at 100 nM	failed to generate a response at any concentration	
CCCOC(=O)C1(O)C(C)CC2C3CCC4=CC(=O)C=CC4(C)C3(F)C(O)CC21C (stereo not shown) [R]		failed completely to repress P65 function	failed to generate a response at any concentration	
